# Measured values reported in US10512667B2, “Compositions and methods for treating conditions related to adrenocortical activity and/or excessive steroid production” (The Regents of the University of Michigan, priority 2017, dated 2019).
# “Also recorded” adds a separate entry of the source.
# Tests used:
# [1] = tested on: H295R cells; experiment: Visualization of cholesterol levels by filipin III binding; assay type: cell-based; settings: for cholesterol level (filipin III binding), compound alone: serum-free medium containing apoA-I, 4 h
# Procedure: The cells were seeded in 96-well ibiTreat μ-Plates and allowed to adhere for 48 h prior to the start of each experiment. Cholesterol was detected in fixed cells by incubating with 100 μg/ml filipin III at 37 C for 2 h. […] Images were captured using either a 4× or a 60× objective. Cholesterol esterification was visualized by culturing the cells with 1 μM NBD-cholesterol for 2 h following incubation with the indicated compounds. […] Images were captured using either a 20× or a 60× objective.
# The medium was removed and immediately replaced with 100 μl of 4% paraformaldehyde and the cells were fixed at room temperature for 20 min. The cells were washed twice with 200 μl PBS. […] The fixed cells were incubated with filipin III at 37 C in the dark for 2 h.
# [2] = tested on: H295R cells; experiment: Cellular ATP level (CellTiter-Glo); settings: for ATP level in combination with ATR-101 versus separately: compound together with ATR-101 at concentrations not cytotoxic separately; for ATP level, compound alone: serum-free medium; for ATP depletion at high concentrations of inhibitors of steroidogenesis: alone and in combination with ATR-101, 4 h;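 for all read-outs here: ATP quantified by luminescence after lysing the cells in CellTiter-Glo reagent, with compound exposure at 37 °C under 5% CO2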
# Procedure: The ATP levels of cells were measured by lysis in CellTiter-Glo reagent (Promega), and measurement of the luminescence.
# After 48 h, 20-80 μl of medium was removed from each well and replaced with 20 μl of each compound diluted to 6× of the final concentration in the culture medium to produce a final volume of 120 μl. The cells were incubated at 37 C in 5% CO2 atmosphere for a time ranging from 15 min to 24 h. The medium was removed and immediately replaced with 50 μl of CellTiter-Glo luminescence cell viability assay reagent (Promega). The cells were lysed by agitation at room temperature for 20 min in the dark. The luminescence was measured using a SpectraMax M5 microplate reader (Molecular Devices) with a 0.5 s acquisition time. The luminescence (RLU) values for control cells ranged from 5000 to 20000 RLU in all experiments, and were scaled by a factor of 0.001 to plot all graphs.
# [3] = tested on: H295R cells; experiment: Cortisol secretion (indirect ELISA); assay type: cell-based
# Procedure: Cortisol secretion was measured by replacing the culture medium with fresh medium containing the indicated compounds. The medium was collected at the indicated times. The cortisol concentration in the medium was measured using indirect ELISA (Arbor Assays).
# After 48 h, the medium was removed and replaced with 50 μl of fresh medium. After the indicated incubation time, aliquots of the supernatant ranging from 0.5 to 10 μl were diluted in 50 μl of medium were used to measure the amount of cortisol secreted. Cortisol detection and quantification were performed by indirect ELISA according to the manufacturer's protocol (Arbor Assays #K003).
# [4] = tested on: H295R cells; experiment: Cholesterol efflux into serum-free medium with apoA1; assay type: cell-based; settings: serum-free medium containing apoA-I
# Procedure: Cholesterol efflux was measured by replacing the culture medium with serum-free medium supplemented with 5 μg/ml apoA1 (Sigma) and the indicated compounds. After the indicated time, the serum-free medium was collected, and the cholesterol concentration was measured using the fluorometric enzyme-linked assay (Cayman Chemical).
# After 48 h, the medium was removed and replaced with 50 μl serum-free medium supplemented with 5 μg/mL apoA1. After the indicated time, the supernatant containing the effluxed cholesterol, was transferred to a new 96-well plate. A cholesterol detection reagent (Cayman Chemical) consisting of cholesterol assay buffer, cholesterol assay detector (10-acetyl-3,7-dihydroxyphenoxazine [ADHP]), horseradish peroxidase, cholesterol oxidase, and cholesterol esterase was added, and the reactions were incubated for 30 min at 37 C. The fluorescence intensities were measured using ex. […] 590 nm. The cholesterol concentrations were calculated by interpolation between the values produced by cholesterol standards that were analyzed in parallel.
# [5] = target: T1, MDR1 (Homo sapiens, UniProt P08183); experiment: Doxorubicin accumulation / clearance in H295R cells; assay type: cell-based; settings: 25 μM doxorubicin, 20 μM compound, 2 h
# T1 construct: measured the accumulation of doxorubicin in H295R cells; endogenous in cells; host or cells: H295R adrenocortical carcinoma cells
# Procedure: The medium was removed and immediately replaced with 100 μl of fresh media and intracellular doxorubicin fluorescence was visualized by fluorescence microscopy using a 20× objective.
# [6] = H295R cells cultured with the compound together with ATR-101, 4 h
# [7] = H295R cells, serum-free medium containing apoA-I, together with ATR-101
compound,measurement,setting,value
"CCN(CC)CCO[C@H]1CC[C@@]2(C)C(=CC[C@@H]3[C@@H]2CC[C@]2(C)C(=O)CC[C@@H]32)C1 [U18666A, 3β-(2-diethylaminoethoxy)-5-androsten-17-one]",cholesterol accumulation in combination with ATR-101 versus separately,"[1]; H295R cells, 20 μM ATR-101 with 5 μM benzamil (1 h) or 8 μM U18666A (serum-free)",greater than additive increase in cholesterol accumulation
same,ATP level in combination with ATR-101 versus separately,"[2]; H295R cells, 4 h",caused ATP depletion at concentrations that had no detectable effect on the ATP level separately
COc1ccc(CCN(C)CCCC(C#N)(c2ccc(OC)c(OC)c2)C(C)C)cc1OC (stereo not shown) [verapamil],"cholesterol level (filipin III binding), compound alone",[1]; H295R cells,increased the level of cholesterol in intracellular membranes; also recorded: caused cholesterol accumulation
same,"ATP level, compound alone","[2]; H295R cells, 4 h",did not reduce the ATP levels
same,"cortisol secretion, compound alone","[3]; cortisol in medium, 4 h or time course",inhibited cortisol secretion
COc1ccc(Cl)cc1C(=O)NCCc1ccc(S(=O)(=O)NC(=O)NC2CCCCC2)cc1 [glibenclamide],"cholesterol level (filipin III binding), compound alone",[1]; H295R cells,lack of cholesterol accumulation
same,"cholesterol level (filipin III binding), compound alone","[1]; H295R cells, listed as Glibenclamide",did not cause cholesterol accumulation
same,"cholesterol efflux, compound alone",[4]; 4 h,blocked cholesterol efflux
same,ATP level in combination with ATR-101 versus separately,"[2]; H295R cells, 4 h",did not cause a larger than additive reduction in the ATP levels; also recorded: did not increase the efficiency of ATP depletion
same,"ATP level, compound alone","[2]; H295R cells, 4 h",did not reduce the ATP level
Cc1c(C)c2c(c(C)c1O)CC[C@@](C)(CCC[C@H](C)CCC[C@H](C)CCCC(C)C)O2 [α-tocopherol],effect on the inhibition of cholesterol efflux by ATR-101,[4]; together with ATR-101,did not restore cholesterol efflux
same,effect on ATP depletion by ATR-101,[2]; [6],restored normal or nearly normal ATP levels
same,effect on ATP depletion by ATR-101,[2]; [7],restored the ATP level
same,effect on the inhibition of cortisol secretion by ATR-101,"[3]; 40 μM of the compound together with ATR-101, 4 h",neither compound prevented the inhibition of cortisol secretion
CC(=O)N1CCN(c2ccc(OCC3COC(Cn4ccnc4)(c4ccc(Cl)cc4Cl)O3)cc2)CC1 (stereo not shown) [ketoconazole],ATP depletion at high concentrations of inhibitors of steroidogenesis,[2]; H295R cells,enhanced ATP depletion
CCCCC/C=C\C/C=C\CCCCCCCC(=O)O[C@H]1CC[C@@]2(C)C(=CC[C@H]3[C@@H]4CC[C@H]([C@H](C)CCCC(C)C)[C@@]4(C)CC[C@@H]32)C1 [cholesterol linoleate],effect on cholesterol accumulation caused by ATR-101,"[1]; H295R cells cultured with the compound together with ATR-101, 4 h or 24 h",did not prevent the accumulation of cellular cholesterol
same,effect on ATP depletion by ATR-101,"[2]; H295R cells cultured with the compound together with ATR-101, 24 h",did not prevent
CC(=O)O[C@H]1CC[C@@]2(C)C(=CC[C@@H]3[C@@H]2CC[C@]2(C)C(c4cccnc4)=CC[C@@H]32)C1 [abiraterone acetate],ATP depletion at high concentrations of inhibitors of steroidogenesis,[2]; H295R cells,enhanced ATP depletion
CC(C)CCC[C@@H](C)[C@H]1CC[C@H]2[C@@H]3CCC4=CC(=NO)CC[C@]4(C)[C@H]3CC[C@]12C [olesoxime],effect on the inhibition of cholesterol efflux by ATR-101,"[4]; together with ATR-101, listed as Olesoxime",no detectable effect on the inhibition of cholesterol efflux
same,effect on ATP depletion by ATR-101,[2]; [6],reduced ATP depletion by ATR-101
same,effect on ATP depletion by ATR-101,[2]; [7],reduced ATP depletion by ATR-101
NC(=NCc1ccccc1)NC(=O)c1nc(Cl)c(N)nc1N [benzamil],doxorubicin accumulation,[5],did not increase doxorubicin accumulation
rhodamine-123,ATP level in combination with ATR-101 versus separately,"[2]; H295R cells, 4 h",larger than additive reductions in the ATP levels
same,ATP level in combination with ATR-101 versus separately,"[2]; H295R cells, 4 h, listed as rhodamine 123",caused ATP depletion at concentrations that did not deplete ATP individually
same,fold lower concentration that reduced the ATP level in combination than required separately,"[2]; H295R cells, ATR-101 and rhodamine-123 in combination, 4 h",5 fold
